Source: ChEMBL document CHEMBL1131172 (J Med Chem, 1998)

Legend:
[1] = tested on: 786-0; assay: inhibition of the growth of renal cancer(786-0) cell line; assay type: functional; conditions: Homo sapiens
[2] = tested on: 786-0; assay: Inhibition of the growth of renal cancer(786-0) cell line at 0.01 uM; assay type: functional; conditions: Homo sapiens
[3] = tested on: A549; assay: inhibition of the growth of non-small-cell lung cancer (A549/ATCC) cell line; assay type: functional; conditions: Homo sapiens
[4] = tested on: A549; assay: Inhibition of the growth of non-small-cell lung cancer (A549/ATCC) cell line at 0.01 uM; assay type: functional; conditions: Homo sapiens
[5] = tested on: CAKI-1; assay: inhibition of the growth of renal cancer(CAKI-1) cell line; assay type: functional; conditions: Homo sapiens
[6] = tested on: CAKI-1; assay: Inhibition of the growth of renal cancer(CAKI-1) cell line at 0.01 uM; assay type: functional; conditions: Homo sapiens
[7] = tested on: DU-145; assay: Inhibition of the growth of prostate cancer(DU-145) cell line at 0.01 uM; assay type: functional; conditions: Homo sapiens
[8] = tested on: DU-145; assay: inhibition of the growth of prostate cancer(DU-145) cell line; assay type: functional; conditions: Homo sapiens
[9] = tested on: HCT-15; assay: Inhibition of the growth of colon cancer(HCT-15) cell line at 0.01 uM; assay type: functional; conditions: Homo sapiens
[10] = tested on: HCT-15; assay: inhibition of the growth of colon cancer(HCT-15) cell line; assay type: functional; conditions: Homo sapiens
[11] = tested on: HCT-116; assay: inhibition of the growth of colon cancer(HCT116) cell line; assay type: functional; conditions: Homo sapiens
[12] = tested on: HCT-116; assay: Inhibition of the growth of colon cancer(HCT116) cell line at 0.01 uM; assay type: functional; conditions: Homo sapiens
[13] = tested on: IGROV-1; assay: inhibition of the growth of ovarian cancer(IGROVI) cell line; assay type: functional; conditions: Homo sapiens
[14] = tested on: KM12; assay: inhibition of the growth of colon cancer(KM-12) cell line; assay type: functional; conditions: Homo sapiens
[15] = tested on: KM12; assay: Inhibition of the growth of colon cancer(KM-12) cell line at 0.01 uM; assay type: functional; conditions: Homo sapiens
[16] = tested on: M14; assay: Inhibition of the growth of melanoma cancer (M14) cell line at 0.01 uM; assay type: functional; conditions: Homo sapiens
[17] = tested on: MOLT-4; assay: Inhibition of the growth of leukemia (MOLT-4) cell line; assay type: functional; conditions: Homo sapiens
[18] = tested on: NCI/ADR-RES; assay: inhibition of the growth of breast cancer (MCF7/ADR-RES) cell line; assay type: functional; conditions: Homo sapiens
[19] = tested on: NCI/ADR-RES; assay: Inhibition of the growth of breast cancer (MCF7/ADR-RES) cell line at 0.01 uM; assay type: functional; conditions: Homo sapiens
[20] = tested on: MCF7; assay: Inhibition of the growth of breast cancer (MCF-7) cell line at 0.01 uM; assay type: functional; conditions: Homo sapiens
[21] = tested on: M14; assay: inhibition of the growth of melanoma cancer (M14) cell line; assay type: functional; conditions: Homo sapiens
[22] = tested on: MDA-N; assay: inhibition of the growth of breast cancer(MDA-N) cell line; assay type: functional; conditions: Homo sapiens
[23] = tested on: MDA-N; assay: Inhibition of the growth of breast cancer(MDA-N) cell line at 0.01 uM; assay type: functional; conditions: Homo sapiens
[24] = tested on: MDA-MB-435; assay: Inhibition of the growth of breast cancer (MDA-MB-435) cell line at 0.01 uM; assay type: functional; conditions: Homo sapiens
[25] = tested on: MDA-MB-435; assay: inhibition of the growth of breast cancer (MDA-MB-435) cell line; assay type: functional; conditions: Homo sapiens
[26] = tested on: MCF7; assay: inhibition of the growth of breast cancer (MCF-7) cell line; assay type: functional; conditions: Homo sapiens
[27] = tested on: NCI-H460; assay: inhibition of the growth of non-small-cell lung cancer (NCI-H460) cell line; assay type: functional; conditions: Homo sapiens
[28] = tested on: NCI-H522; assay: inhibition of the growth of non-small-cell lung cancer (NCI-H522) cell line; assay type: functional; conditions: Homo sapiens
[29] = tested on: NCI-H522; assay: Inhibition of the growth of non-small-cell lung cancer (NCI-H522) cell line at 0.01 uM; assay type: functional; conditions: Homo sapiens
[30] = tested on: NCI-H322M; assay: inhibition of the growth of non-small-cell lung cancer (NCI-H322M) cell line; assay type: functional; conditions: Homo sapiens
[31] = tested on: NCI-H322M; assay: Inhibition of the growth of non-small-cell lung cancer (NCI-H322M) cell line at 0.01 uM; assay type: functional; conditions: Homo sapiens
[32] = tested on: NCI-H23; assay: Inhibition of the growth of non-small-cell lung cancer (NCI-H23) cell line; assay type: functional; conditions: Homo sapiens
[33] = tested on: OVCAR-8; assay: inhibition of the growth of ovarian cancer(OVCAR-8) cell line; assay type: functional; conditions: Homo sapiens
[34] = tested on: NCI-H460; assay: Inhibition of the growth of non-small-cell lung cancer (NCI-H460) cell line at 0.01 uM; assay type: functional; conditions: Homo sapiens
[35] = tested on: NCI-H23; assay: Inhibition of the growth of non-small-cell lung cancer (NCI-H23) cell line at 0.01 uM; assay type: functional; conditions: Homo sapiens
[36] = tested on: RPMI-8226; assay: Inhibition of the growth of leukemia (RPMI-8226) cell line at 0.01 uM; assay type: functional; conditions: Homo sapiens
[37] = tested on: RPMI-8226; assay: Inhibition of the growth of leukemia (RPMI-8226) cell line; assay type: functional; conditions: Homo sapiens
[38] = tested on: SF-268; assay: Inhibition of the growth of CNS cancer(SF-268) cell line at 0.01 uM; assay type: functional; conditions: Homo sapiens
[39] = tested on: SF-268; assay: inhibition of the growth of CNS cancer(SF-268) cell line; assay type: functional; conditions: Homo sapiens
[40] = tested on: SF-295; assay: inhibition of the growth of CNS cancer(SF-295) cell line; assay type: functional; conditions: Homo sapiens
[41] = tested on: SF-295; assay: Inhibition of the growth of CNS cancer(SF-295) cell line at 0.01 uM; assay type: functional; conditions: Homo sapiens
[42] = tested on: SF-539; assay: Inhibition of the growth of CNS cancer(SF-539) cell line at 0.01 uM; assay type: functional; conditions: Homo sapiens
[43] = tested on: SNB-19; assay: inhibition of the growth of CNS cancer(SNB-19) cell line; assay type: functional; conditions: Homo sapiens
[44] = tested on: SNB-19; assay: Inhibition of the growth of CNS cancer(SNB-19) cell line at 0.01 uM; assay type: functional; conditions: Homo sapiens
[45] = tested on: SF-539; assay: inhibition of the growth of CNS cancer(SF-539) cell line; assay type: functional; conditions: Homo sapiens
[46] = tested on: SR; assay: Inhibition of the growth of leukemia(SR) cell line; assay type: functional; conditions: Homo sapiens
[47] = tested on: SR; assay: Inhibition of the growth of leukemia(SR) cell line at 0.01 uM; assay type: functional; conditions: Homo sapiens
[48] = tested on: SK-MEL-5; assay: inhibition of the growth of melanoma cancer (SK-MEL-5) cell line; assay type: functional; conditions: Homo sapiens
[49] = tested on: SK-MEL-5; assay: Inhibition of the growth of melanoma cancer (SK-MEL-5) cell line at 0.01 uM; assay type: functional; conditions: Homo sapiens
[50] = tested on: UO-31; assay: inhibition of the growth of renal cancer(UO-31) cell line; assay type: functional; conditions: Homo sapiens
[51] = tested on: UO-31; assay: Inhibition of the growth of renal cancer(UO-31) cell line at 0.01 uM; assay type: functional; conditions: Homo sapiens
[52] = tested on: IGROV-1; assay: Inhibition of the growth of ovarian cancer(IGROVI) cell line at 0.01 uM; assay type: functional; conditions: Homo sapiens
[53] = tested on: MOLT-4; assay: Inhibition of the growth of leukemia (MOLT-4) cell line at 0.01 uM; assay type: functional; conditions: Homo sapiens
[54] = tested on: OVCAR-8; assay: Inhibition of the growth of ovarian cancer(OVCAR-8) cell line at 0.01 uM; assay type: functional; conditions: Homo sapiens
[55] = target: T1, Bifunctional dihydrofolate reductase-thymidylate synthase (Toxoplasma gondii, UniProt Q07422)
T1 sequence (Q07422 whole entry): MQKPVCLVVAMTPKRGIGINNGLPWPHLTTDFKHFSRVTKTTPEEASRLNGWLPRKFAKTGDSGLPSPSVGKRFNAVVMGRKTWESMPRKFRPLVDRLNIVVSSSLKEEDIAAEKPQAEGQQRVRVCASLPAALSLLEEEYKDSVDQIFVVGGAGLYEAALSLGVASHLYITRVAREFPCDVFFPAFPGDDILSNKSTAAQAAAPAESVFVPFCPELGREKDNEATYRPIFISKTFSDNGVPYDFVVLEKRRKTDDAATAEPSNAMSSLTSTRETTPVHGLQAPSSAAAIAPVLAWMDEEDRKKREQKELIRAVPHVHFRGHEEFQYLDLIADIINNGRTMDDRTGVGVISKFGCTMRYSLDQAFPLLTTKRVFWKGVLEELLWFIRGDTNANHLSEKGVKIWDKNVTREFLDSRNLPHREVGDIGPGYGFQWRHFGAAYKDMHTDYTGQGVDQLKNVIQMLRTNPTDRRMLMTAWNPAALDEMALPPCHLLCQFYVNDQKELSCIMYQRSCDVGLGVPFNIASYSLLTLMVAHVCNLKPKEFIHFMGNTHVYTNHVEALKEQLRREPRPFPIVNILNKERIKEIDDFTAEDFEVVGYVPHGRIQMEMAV
Description: Inhibitory activity against dihydrofolate reductase (DHFR) from Toxoplasma gondii

[56] = target: T2, Dihydrofolate reductase (Pneumocystis carinii, UniProt P16184)
T2 sequence (P16184 whole entry): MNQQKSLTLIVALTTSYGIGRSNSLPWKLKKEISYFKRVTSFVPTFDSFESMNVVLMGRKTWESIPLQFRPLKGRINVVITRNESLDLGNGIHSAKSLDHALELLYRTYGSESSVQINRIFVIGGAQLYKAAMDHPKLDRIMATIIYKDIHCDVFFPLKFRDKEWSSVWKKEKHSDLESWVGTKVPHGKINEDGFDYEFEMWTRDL
Description: Inhibitory activity against dihydrofolate reductase (DHFR) from Pneumocystis carinii

[57] = target: T3, Dihydrofolate reductase (Rattus norvegicus, UniProt Q920D2)
T3 sequence (Q920D2 whole entry): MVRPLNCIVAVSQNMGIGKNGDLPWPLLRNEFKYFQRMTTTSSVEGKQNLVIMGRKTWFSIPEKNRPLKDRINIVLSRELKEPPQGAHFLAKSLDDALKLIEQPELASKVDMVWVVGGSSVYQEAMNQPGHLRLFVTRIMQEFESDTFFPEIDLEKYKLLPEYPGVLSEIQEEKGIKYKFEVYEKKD
Description: Inhibitory activity against dihydrofolate reductase (DHFR) from rat liver

Work on `COc1ccc(OC)c(N(C)c2ccc3nc(N)nc(N)c3n2)c1` yielded a GI50 [1] of less than 10 nM, an inhibition at 0.01 µM [2] of 55% and a GI50 [3] of less than 10 nM. For the same molecule, the inhibition at 0.01 µM [4] was 72%, the GI50 [5] was less than 10 nM and the inhibition at 0.01 µM [6] was 70%. The inhibition at 0.01 µM [7] was 57%, the GI50 [8] was less than 10 nM and the inhibition at 0.01 µM [9] was 70%. For the same molecule, the GI50 [10] was less than 10 nM, the GI50 [11] was less than 10 nM and the inhibition at 0.01 µM [12] was 83%. For the same molecule, the GI50 [13] was less than 10 nM, the GI50 [14] was less than 10 nM and the inhibition at 0.01 µM [15] was 55%. It also gave an inhibition at 0.01 µM [16] of 61%, a GI50 [17] of less than 10 nM and a GI50 [18] of less than 10 nM. For the same molecule, the inhibition at 0.01 µM [19] was 82%, the inhibition at 0.01 µM [20] was 58% and the GI50 [21] was less than 10 nM. For the same molecule, the GI50 [22] was less than 10 nM, the inhibition at 0.01 µM [23] was 59% and the inhibition at 0.01 µM [24] was 70%. For the same molecule, the GI50 [25] was less than 10 nM, the GI50 [26] was less than 10 nM and the GI50 [27] was less than 10 nM. The GI50 [28] was less than 10 nM, the inhibition at 0.01 µM [29] was 67% and the GI50 [30] was less than 10 nM. The inhibition at 0.01 µM [31] was 58%, the GI50 [32] was less than 10 nM and the GI50 [33] was less than 10 nM. For the same molecule, the inhibition at 0.01 µM [34] was 82%, the inhibition at 0.01 µM [35] was 78% and the inhibition at 0.01 µM [36] was 68%. For the same molecule, the GI50 [37] was less than 10 nM, the inhibition at 0.01 µM [38] was 57% and the GI50 [39] was less than 10 nM. The GI50 [40] was less than 10 nM, the inhibition at 0.01 µM [41] was 69% and the inhibition at 0.01 µM [42] was 65%. For the same molecule, the GI50 [43] was less than 10 nM, the inhibition at 0.01 µM [44] was 73% and the GI50 [45] was less than 10 nM. It also gave a GI50 [46] of less than 10 nM, an inhibition at 0.01 µM [47] of 68% and a GI50 [48] of less than 10 nM. The inhibition at 0.01 µM [49] was 76%, the GI50 [50] was less than 10 nM and the inhibition at 0.01 µM [51] was 100%. For the same molecule, the inhibition at 0.01 µM [52] was 66%, the inhibition at 0.01 µM [53] was 54% and the inhibition at 0.01 µM [54] was 75%. For the same molecule, the IC50 [55] was 41 nM, the IC50 [56] was 34 nM and the IC50 [57] was 4.2 nM.
